Assay results reported in US9345793B2, “Compounds for binding to the platelet specific glycoprotein IIB/IIIA and their use for imaging of thrombi” (PIRAMAL IMAGING SA, priority 2011, dated 2016).
Read-outs that look alike come from different tables or passages of the source.

What was measured:
[1] = target: human GPIIb/IIIa receptor (Homo sapiens (Human), UniProt P05106+P08514); experiment: Affinity assay: displacement of tritiated reference compound from immobilized purified GPIIb/IIIa; type: binding
Sequence of human GPIIb/IIIa receptor (P08514 32-887): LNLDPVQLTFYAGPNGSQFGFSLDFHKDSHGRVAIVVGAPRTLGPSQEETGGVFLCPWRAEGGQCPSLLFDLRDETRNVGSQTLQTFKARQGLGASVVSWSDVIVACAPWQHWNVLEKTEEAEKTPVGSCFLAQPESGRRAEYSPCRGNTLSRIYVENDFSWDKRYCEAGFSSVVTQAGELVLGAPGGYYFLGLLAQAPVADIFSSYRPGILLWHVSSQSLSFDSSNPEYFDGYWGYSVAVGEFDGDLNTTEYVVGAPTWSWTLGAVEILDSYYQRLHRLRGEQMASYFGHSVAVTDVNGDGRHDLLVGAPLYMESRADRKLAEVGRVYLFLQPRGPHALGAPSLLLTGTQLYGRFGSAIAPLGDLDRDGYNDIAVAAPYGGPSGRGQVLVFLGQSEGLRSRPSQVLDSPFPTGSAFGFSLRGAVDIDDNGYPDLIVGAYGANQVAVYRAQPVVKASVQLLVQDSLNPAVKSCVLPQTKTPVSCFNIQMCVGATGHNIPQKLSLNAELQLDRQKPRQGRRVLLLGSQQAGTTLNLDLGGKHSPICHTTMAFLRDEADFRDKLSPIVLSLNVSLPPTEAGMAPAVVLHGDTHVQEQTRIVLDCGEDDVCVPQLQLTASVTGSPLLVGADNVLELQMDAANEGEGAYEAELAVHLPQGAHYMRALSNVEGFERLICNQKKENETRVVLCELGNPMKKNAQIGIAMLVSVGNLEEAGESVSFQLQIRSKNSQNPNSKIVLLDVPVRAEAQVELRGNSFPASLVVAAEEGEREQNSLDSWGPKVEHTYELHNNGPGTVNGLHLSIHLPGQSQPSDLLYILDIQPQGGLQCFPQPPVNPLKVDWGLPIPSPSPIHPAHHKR
Sequence of human GPIIb/IIIa receptor (P08514 891-1039 partner): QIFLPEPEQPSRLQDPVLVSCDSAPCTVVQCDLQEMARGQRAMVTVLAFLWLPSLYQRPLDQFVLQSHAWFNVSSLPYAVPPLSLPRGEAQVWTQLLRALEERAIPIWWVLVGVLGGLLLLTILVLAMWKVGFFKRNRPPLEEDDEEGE
Sequence of human GPIIb/IIIa receptor (P05106 27-788): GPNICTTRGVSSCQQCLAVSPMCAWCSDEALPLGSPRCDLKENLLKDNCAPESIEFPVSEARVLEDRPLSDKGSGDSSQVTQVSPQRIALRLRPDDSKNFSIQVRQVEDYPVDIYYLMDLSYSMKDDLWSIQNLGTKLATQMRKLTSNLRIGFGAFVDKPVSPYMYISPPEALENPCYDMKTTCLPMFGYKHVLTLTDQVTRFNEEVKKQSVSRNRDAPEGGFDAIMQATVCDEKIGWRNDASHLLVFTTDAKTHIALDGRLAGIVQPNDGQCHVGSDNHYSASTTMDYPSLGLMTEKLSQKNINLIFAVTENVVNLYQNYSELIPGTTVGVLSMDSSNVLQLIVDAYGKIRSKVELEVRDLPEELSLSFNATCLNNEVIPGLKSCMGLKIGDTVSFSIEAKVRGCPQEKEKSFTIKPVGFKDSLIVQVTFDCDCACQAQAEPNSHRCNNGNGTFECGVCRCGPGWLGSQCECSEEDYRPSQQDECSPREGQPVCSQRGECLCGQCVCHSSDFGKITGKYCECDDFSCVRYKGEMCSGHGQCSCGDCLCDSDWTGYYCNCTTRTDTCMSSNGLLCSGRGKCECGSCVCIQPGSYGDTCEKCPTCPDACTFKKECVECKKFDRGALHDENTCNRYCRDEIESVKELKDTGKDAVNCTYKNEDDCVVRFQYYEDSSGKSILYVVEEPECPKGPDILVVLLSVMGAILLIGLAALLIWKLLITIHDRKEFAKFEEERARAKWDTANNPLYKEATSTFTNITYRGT
Description: Affinity assay: In the first step human GPIIb/IIIa purified from human platelets was immobilized on a 96-well solid plate. After 48 hours the plates were washed and the unspecific binding sites were blocked with Roti®-Block. 2. In the next step, the plates were simultaneously incubated with a tritium labeled known GPIIb/IIIa binder (^3H) mixed with increasing concentrations of the novel small molecule compounds (inhibitor, ^19F). The higher the affinity of the inhibitor, the lower the bound fraction of the tritiated known GPIIb/IIIa binder (^3H) was. The fraction of tritiated compound (^3H), which is not displaced by inhibitor, was measured in a microplate scintillation counter.
Purified human glycoprotein IIb/IIIa (20 mM Tris-HCl, 0.1 M NaCl, 0.1% Triton X-100, 1 mM CaCl2, 0.05% NaN3, 50% Glycerol, pH 7.4) was purchased from Enzyme Research Laboratories Inc. (South Bend, Ind.). The GPIIb/IIIa receptor was diluted in phosphate-buffered saline (Dulbecco's Phosphate Buffered Saline (D-PBS(+)) with calcium and magnesium, GIBCO®, Invitrogen) with 0.01% bovine serum albumin (albumin from bovine serum—lyophilized powder, ≧96%, Sigma).
The GPIIb/IIIa receptor was immobilized 48 hours at least (100 μL per well, 48 to maximum 96 hours) on a 96-well solid plate (Immuno Plate MaxiSorp™, Nunc, Roskilde, Denmark) at 277 K to 280 K and at a concentration of 0.1 μg per well to 1 μg per well. As negative control one row of the plate (n=8) was incubated just with 2% bovine serum albumin (200 μper well, albumin from bovine serum—lyophilized powder, […], Sigma, diluted in D-PBS(+)). After washing three times with the wash buffer (230 μL per well, Dulbecco's Phosphate Buffered Saline (D-PBS (−)) contains no calcium or magnesium, GIBCO®, Invitrogen) residual exposed plastic and unspecific binding sites were blocked by incubating the plate with a special blocking solution (200 μL per well, Roti®-Block, Carl Roth GmbH Co KG, Karlsruhe) containing 2% bovine serum albumin (Albumin from bovine serum—lyophilized powder, ≧96%, Sigma) 1 hour at room temperature.
After washing three times with the wash buffer 50 μL of tritiated reference compound (60 nM, ^3H-labeled compound) and 50 μL of novel compound (inhibitor, ^19F) were simultaneously added to each well and incubated for 1 hour at room temperature. Several concentrations of each novel inhibitor (0.1, 1, 2, 5, 10, 20 50, 100, 200, 500, 1000, 2000, 5000, 10000 and 20000 nM) were investigated. At each concentration of inhibitor a fourfold determination was performed.
The maximum value of tritiated reference compound was determined without addition of inhibitor (n=8). To exclude unspecific binding of ^3H-reference compound wells without glycoprotein receptors were used as negative controls (n=12, identically treated just without GP IIb/IIIa receptors).
After one hour the plate was washed three times with phosphate-buffered saline (200 μL per well, Dulbecco's Phosphate Buffered Saline (D-PBS(+)), GIBCO®, Invitrogen). Following 140 μL of liquid scintillation cocktail (MicroScint™ 40 aqueous, Perkin Elmer) was added to each well. After 15 min at room temperature the plates were measured at the microplate scintillation counter (TopCount NXT v2.13, Perkin Elmer, Packard Instrument Company).
In the first step human glycoprotein IIb/IIIa, which is purified from human platelets, was immobilized on a 96-well solid plate. After 48 hours at least the plates were washed and the unspecific binding sites were blocked with Roti®-Block. In the next step, the plates were simultaneously incubated with a tritium labeled reference compound and the novel small molecule compound (inhibitor). The higher the affinity of the inhibitor, the smaller is the bound fraction of reference compound. The fraction of tritiated reference compound, which is not displaced by inhibitor, was measured at a microplate scintillation counter.

[2] = Plasma protein binding by equilibrium dialysis, human plasma; type: in vitro ADME; conditions: plasma (10% in buffer), Caucasian, read-out: Fu (Mari)
Description: (§1) The determination of the plasma protein binding of compounds was performed by means of an equilibrium dialysis in a 96-well HT plate. Solutions of test compound (0.3 μM and 3 μM) were prepared in buffer (50 mM phosphate buffer) and 10% plasma. A 96 well HT dialysis plate (Teflon) was assembled so that each well was divided in two compartments by a semi-permeable cellulose membrane (regenerated Cellulose, MWCO 12-14K). The phosphate buffer solution (150 μL) was added to one side of the membrane and the plasma solution to the other side (150 μL). The compounds were added to the plasma solution side and were incubated at 37 degree. The unbound fraction of the compound could pass through the membrane and equilibrium between the two sides could be reached (6-8 h, 37° C.). Both solutions were analyzed for each compound (plasma-free and plasma-containing) by LC-MS. Both solutions for each compound were diluted with buffer or plasma to reach the same matrix (10% plasma) for analysis and were precipitated by the addition of methanol. The fraction unbound (Fu) was calculated as the quotient of the equilibrium concentrations of the compound in plasma-free and plasma-containing solution.

[3] = Plasma protein binding by equilibrium dialysis, monkey plasma; type: in vitro ADME; conditions: plasma (10% in buffer), Cynomolgus, read-out: Fu (Mari)
Description: as §1

human thrombi = experiment: Ex vivo blood flow model: binding to human thrombi, incl. competition with cold compound; conditions: ± SEM; for in vitro clot-to-blood ratio / Accumulation Thrombus: 3 minutes post-injection of 18F-labeled compound; for Accumulation Thrombus: without cold compound; for Thrombus competition: cold compound added with hot compound, final plasma concentration 2.8 μM, 3 minutes
From the text: The binding of compounds to thrombi was further investigated in an ex vivo blood flow model similar to that described in “Wakhloo, A. K. et al. Thrombus and stroke 2008, in vitro models 57-66” but modified with regard to thrombus development. Briefly, an open handmade tube-set consisting of tygon-tubes (Tygon R-1000, part N^O AAU00007: I.D. 3.2 mm, O.D. 6.4 mm, Saint Gobain Performance Plastics North America), intermediate tubes (Intrafix® Infusion set, B. Braun, Melsungen, Germany) an open reservoir (10 mL Combitip, Eppendorf) and a chamber made of a piece of polyethylene-Tube, ([…] Polyethylene Tubing, Clay Adams, PE160, length: 6.5 cm) containing a loop of a roughened thread (fishing line: Okuma UltraMax whitefish, diameter: 0.14 mm, length: 5 cm; sandpaper: CAMI Grit designation: 600, CP918a, VSM) was used for thrombus formation. The connection between the intermediate tube and the thrombus chamber was made by trimmed tips (epTIPS, 200 μL, Eppendorff, Hamburg/Germany). The Reservoir and the thrombus chamber were fixed by clamps and stands. A peristaltic-pump (Minipuls 3, Gilson, Middelton/USA) was used to pump the blood around thereby adjusting the flow in the middle of the thrombus chamber to 70-90 cm per second, which was monitored by ultrasound Doppler measurement (Vevo 770 High-Resolution In Vivo Micro-Imaging System, VisualSonics, TorontoOntario, Canada; Scanhead: RMV 704, 40 MHz). The volume of the entire tube-set was 7.5 or 15 mL.
For each experiment fresh blood was taken from a volunteer using 10 mL citrate-tubes (Sarstedt S-Monovette 02.1067.001, 10 mL, Citrate 3.13%) and immediately laid into the turning-device of an incubator at a temperature of 37° C. (Heraeus miniTherm CTT with integrated rotation- and turning device, turning speed: 19 rotations per minute, Heraeus Instruments GmbH, Hanau/Germany). As needed, two tubes were taken out of the turning-device and 15 mL were transferred to a 20 mL Syringe (Omnifix®, B. Braun, Melsungen/Germany) and gently mixed with 0.75 mL CaCl2-Solution before the peristaltic pump was started and the whole content of the syringe was transferred into the reservoir of the tube-set via a cell strainer (BD Falcon™ cell strain, 40 μm, BD, Franklin Lakes, N.J. USA). After 7 minutes 1 MBq or 0.5 MBq (15 mL or 7.5 mL) of the compound was added to the reservoir by means of a pipette, thereby mixing the content gently with the tip of the pipette. The blood was left circulating for another 3 minutes. Then, the pump was stopped, aliquots were taken from the blood and the thrombus together with the roughened thread was removed from the thrombus-chamber before both was weighted and measured in a gamma counter (Automatic Gamma Counter Wizard^2 3, Perkin Elmer). Then the thrombus together with the thread was incubated in Plasmin-solution (Plasmin from Human Plasma, Sigma Aldrich, stock-solution: 500 μg in 500 μL 150 μM Tris-buffer (pH 7.8), 20 μL stock-solution to 230 μL saline solution 0.9%) for 48 hours to separate the platelets from the thread and to determine the netto weight of the thrombus. Finally the activity of the compound in blood and thrombus as well as the ratio between both was determined (cpm/weight [mg]).
To verify the specificity of the compound, a competition experiment was conducted in which the cold compound was added to the reservoir together with the hot compound. The final plasma concentration of the cold compound was 2.8 μM.

[4] = Pharmacokinetics / biodistribution in mice; type: in vivo; conditions: nude mice
Description: The biodistribution of the compound described in example 41 was determined in nude mice. Briefly, the mice received 185 KBq of the compound each. At different time points ([…], 3 mice per group) the animals were sacrificed and the organs of interest or aliquots thereof were removed, weighted and finally measured in a gamma counter (Automatic Gamma Counter Wizard^2 3, Perkin Elmer).

Row | Structure (SMILES) | in vitro clot-to-blood ratio (human thrombi) | Accumulation Thrombus (human thrombi) | Thrombus competition (human thrombi) | other results
1 | O=C(O)C[C@H](NC(=O)[C@@H]1CCCN(C(=O)CCC2CCNCC2)C1)c1cncc(-c2ccc(OCCF)cc2)c1 [Example 7, (3S)-3-{5-[4-(2-Fluoroethoxy)phenyl]pyridin-3-yl}-3-[({(3R)-1-[3-(piperidin-4-yl)propanoyl]piperidin-3-yl}carbonyl)amino]propanoic acid] | – | – | – | IC50 ([1]; 19F compounds vs 60 nM 3H-labeled reference compound, 1 hour at room temperature, read-out: IC50 human): 11 nM; IC50 ([1]; values repeated beside the 18F-compound, read-out: IC50 human (corresponding 19F-compound, Table 2)): 11 nM; fraction unbound at 0.3 μM ([2]; 0.3 μM): 0.5; fraction unbound at 3 μM ([2]; 3 μM): 0.54; fraction unbound at 0.3 μM ([3]; 0.3 μM): 0.54; fraction unbound at 3 μM ([3]; 3 μM): 0.58
2 | O=C(O)C[C@H](NC(=O)[C@@H]1CCCN(C(=O)CCC2CCNCC2)C1)c1cccc(OCC[18F])c1 [Example 38, (3S)-3-[3-(2-[^18F]Fluoroethoxy)phenyl]-3-[({(3R)-1-[3-(piperidin-4-yl)propanoyl]piperidin-3-yl}carbonyl)amino]propanoic acid] | 19 ± 1 (n = 9) | 41 ± 3 (n = 5) 10^3 cpm/mg | 10 ± 1 (n = 5) 10^3 cpm/mg | –
3 | O=C(O)C[C@H](NC(=O)[C@@H]1CCCN(C(=O)CCC2CCNCC2)C1)c1ccc(OCC[18F])cc1 [Example 39, (3S)-3-[4-(2-[^18F]Fluoroethoxy)phenyl]-3-[({(3R)-1-[3-(piperidin-4-yl)propanoyl]piperidin-3-yl}carbonyl)amino]propanoic acid] | 34 ± 4 (n = 4) | 86 ± 9 (n = 6) 10^3 cpm/mg | 12 ± 1 (n = 6) 10^3 cpm/mg | –
4 | O=C(O)C[C@H](NC(=O)[C@@H]1CCCN(C(=O)CCC2CCNCC2)C1)c1cncc(-c2ccc(OCC[18F])cc2)c1 [Example 41, (3S)-3-{5-[4-(2-[^18F]Fluoroethoxy)phenyl]pyridin-3-yl}-3-[({(3R)-1-[3-(piperidin-4-yl)propanoyl]piperidin-3-yl}carbonyl)amino]propanoic acid] | 83 ± 14 (n = 6) | 44 ± 7 (n = 6) 10^3 cpm/mg | 5 ± 1 (n = 5) 10^3 cpm/mg | enhancement in the vessel-wall [4]: no enhancement in the vessel-wall; excretion [4]: quickly excreted over the kidney and liver; elimination from the blood ([4]; 185 KBq, 1-120 minutes p.i.): rapidly eliminated from the blood; background in the rest of the body ([4]; after 15 minutes p.i.): almost no background in the whole rest of the body
5 | N#Cc1cc(-c2cncc([C@H](CC(=O)O)NC(=O)[C@@H]3CCCN(C(=O)CCC4CCNCC4)C3)c2)ccc1[18F] [Example 42, (3S)-3-[5-(3-Cyano-4-[^18F]fluorophenyl)pyridin-3-yl]-3-[({(3R)-1-[3-(piperidin-4-yl)propanoyl]piperidin-3-yl}carbonyl)amino]propanoic acid] | 58 ± 10 (n = 6) | 39 ± 5 (n = 6) 10^3 cpm/mg | 5 ± 1 (n = 6) 10^3 cpm/mg | –
6 | O=C(O)C[C@H](NC(=O)[C@@H]1CCCN(C(=O)CCC2CCNCC2)C1)c1cncc(CCc2ccc(OCC[18F])cc2)c1 [Example 46, (3S)-3-(5-{2-[4-(2-[^18F]Fluoroethoxy)phenyl]ethyl}pyridin-3-yl)-3-[({(3R)-1-[3-(piperidin-4-yl)propanoyl]piperidin-3-yl}carbonyl)amino]propanoic acid] | 191 ± 30 (n = 4) | 285 ± 76 (n = 4) 10^3 cpm/mg | 17 ± 1 (n = 4) 10^3 cpm/mg | –
7 | O=C(O)C[C@H](NC(=O)[C@@H]1CCCN(C(=O)CCC2CCNCC2)C1)c1cncc(CCc2cccc(OCC[18F])c2)c1 [Example 47, (3S)-3-(5-{2-[3-(2-[^18F]Fluoroethoxy)phenyl]ethyl}pyridin-3-yl)-3-[({(3R)-1-[3-(piperidin-4-yl)propanoyl]piperidin-3-yl}carbonyl)amino]propanoic acid] | 178 ± 48 (n = 4) | 258 ± 59 (n = 4) 10^3 cpm/mg | 14 ± 2 (n = 3) 10^3 cpm/mg | –
